# Measured values: publication PMC10120462, “Styrylquinazoline derivatives as ABL inhibitors selective for different DFG orientations” (Journal of Enzyme Inhibition and Medicinal Chemistry, 2023)
# How the values were obtained:
# [1] = system: NHDF; experiment: Cytotoxicity studies (MTS), normal fibroblasts; format: cell-based; conditions: 72 h, normal human fibroblasts, read-out: Antiproliferative activity IC50 NHDF
# Description: (§1) In contrast, the other cell lines studied represent common cancers found in the human population. Nevertheless, these cell lines are characterised by a different landscape of kinase expression, as reported in[36]. In chronic leukaemia cells, an aberration of the Philadelphia chromosome is common in which a fragment of chromosome 9 is displaced to chromosome 22, leading to the formation of the oncogenic protein BCR-ABL. The altered structure of the protein leads to abnormal activity that promotes excessive growth and differentiation of cells even in the absence of growth factors, as well as inhibition of apoptosis and formation of metastases. Moreover, the status of the TP53 gene in leukaemia is not insignificant. Mutations of the TP53 gene occur in more than 50% of all cancers, leading to increased metastasis and an overall poor prognosis[38]^,[39]. The p53 protein encoded by this gene plays a pivotal role in controlling cell division or cell fate when damage is detected. […] Therefore, interaction between the signalling network of the BCR-ABL pathway and p53 often results in an impairment of p53 function and survival[43]^,[44]. […] Selectivity studies were performed on normal human fibroblast – NHDF cell line.
# (§2) M. Rusin from the Maria Sklodowska-Curie Memorial Cancer Centre and Institute of Oncology in Gliwice, Poland. […] G. Kramer-Marek from the Institute of Cancer Research in London, United Kingdom. The human suspension chronic myeloids leukaemia cell line K562 and the pancreatic ductal adenocarcinoma cell line PANC-1 were purchased from Merck. The normal human dermal fibroblasts cell line NHDF were obtained from PromoCell. All adherent cancer cell lines were cultured in Dulbecco’s Modified Eagle’s medium (DMEM) supplemented with 10% heat-inactivated foetal bovine serum – FBS (all from Merck). […] Each complete medium contained a mixture of two antibiotics - penicillin and streptomycin (1% v/v; Gibco). Cell lines were cultured at 37 °C with 5% CO2 humidified atmosphere.
# (§3) The assay was carried out after 72 h of incubation with different concentrations of the tested compounds. Then DMEM without phenol red was added to each well with CellTiter 96®AQueous One Solution-MTS (Promega) solution and incubated for 1 h or 3 h (PANC-1) at 37 °C. The optical densities of the samples were measured at 490 nm using a multi-plate reader (Synergy 4, BioTek). […] Each compound was tested in triplicate in a single experiment and each experiment was performed three or four times.
# [2] = target: T1, BTK (Homo sapiens, UniProt Q06187); experiment: Tyrosine kinase assay (Kinase Selectivity System TK-2, ADP-Glo); format: biochemical; conditions: 1 h incubation, mean ± SD of four experiments
# T1 construct: purchased Promega
# [3] = system: U-251; experiment: Cytotoxicity studies (MTS), antiproliferative activity; format: cell-based, human
# Description: as §1, §2, §3
# [4] = system: HCT 116 p53+/+; experiment: as above; format: cell-based, human
# Description: as §1, §2, §3
# [5] = system: A549; experiment: as above; format: cell-based, human
# Description: as §1, §2, §3
# [6] = system: PANC-1; experiment: as above; format: cell-based, human; conditions: Homo sapiens, PANC-1; 72 h, MTS
# Description: as §1, §2, §3
# [7] = system: HCT 116 p53−/−; experiment: as above; format: cell-based, human; conditions: Homo sapiens, HCT-116; 72 h, MTS
# Description: as §1, §2, §3
# [8] = system: K562; experiment: as above; format: cell-based, human
# Description: as §1, §2, §3
# [9] = system: MCF-7; experiment: as above; format: cell-based, human
# Description: as §1, §2, §3
# [10] = target: T2, Fyn A (Homo sapiens, UniProt P06241); experiment: Tyrosine kinase assay (Kinase Selectivity System TK-2, ADP-Glo); format: biochemical; conditions: 1 h incubation, mean ± SD of four experiments
# T2 construct: purchased Promega
# Description: All newly synthesised derivatives were screened for their inhibitory potential towards eight non-receptor tyrosine kinases, such as ABL, BTK, BRK and Src family kinases, such as CSK, Lyn, Lck, Fyn and Src. […] To facilitate the analysis of the structure and enzymatic activity, all tested compounds were divided into four subgroups based on the main structural scaffolds (the general structure of each group is shown in the second column of Table 1). Series A, B, and C were subdivided according to the S^4-aryl substituent, while D represents the different styryl groups at the C^2-quinazoline position.
# Herein, we used a kinase assay that contained fully expressed kinases with their regulatory domains, which are responsible for autoinhibition. The proteins are present in their unphosphorylated form and the procedure required supplementation with ATP. Importantly, autophosphorylation of ABL is dependent on […] concentration of the protein. Thus, our experimental conditions reflect the cellular process to be simulated. The luminescence signal detected after one hour of incubation with a peptide substrate was a measure of inhibition. Under these conditions, the question of whether the inhibitors tested bind to the ortho or allosteric site of the protein could be answered. […] To test this hypothesis, further molecular docking experiments were performed to more precisely determine the binding of the tested compounds to the ABL kinase.
# To determine the inhibition of non-receptor tyrosine kinases, assays were performed using the kinase selectivity system TK-2 and the ADP-Glo Kinase Assay (both from Promega). The protocol was previously developed by our group and described in reports[12]^,[36]. Experiments were performed at least four times. Data are expressed as percentage of tyrosine kinase inhibitory activity after treatment with the derivatives tested.
# [11] = target: T3, Lck (Homo sapiens, UniProt P06239); experiment: as above; format: biochemical; conditions: 1 h incubation, mean ± SD of four experiments
# T3 construct: purchased Promega
# [12] = target: T4, BRK (Homo sapiens, UniProt Q13882); experiment: as above; format: biochemical; conditions: 1 h incubation, mean ± SD of four experiments
# T4 construct: purchased Promega
# [13] = target: T5, Src (Homo sapiens, UniProt P12931); experiment: as above; format: biochemical; conditions: 1 h incubation, mean ± SD of four experiments
# T5 construct: purchased Promega
# [14] = target: T6, ABL (Homo sapiens, UniProt P00519); experiment: as above; format: biochemical; conditions: 1 h incubation, mean ± SD of four experiments
# T6 construct: purchased Promega
# [15] = target: T7, CSK (Homo sapiens, UniProt P41240); experiment: as above; format: biochemical; conditions: 1 h incubation, mean ± SD of four experiments
# T7 construct: purchased Promega
# [16] = target: T8, Lyn B (Homo sapiens, UniProt P07948); experiment: as above; format: biochemical; conditions: 1 h incubation, mean ± SD of four experiments
# T8 construct: purchased Promega
# [17] = system: K562 cells; experiment: Analysis of mRNA expression (RT-qPCR); format: cell-based, human; conditions: 16 h; IS1 50 µM, IS8 12 µM, IS10 20 µM, imatinib 2 µM, GNF-2 2 µM
# Description: In the next step, the inhibitory potential of the tested compounds at the gene and protein levels was verified in K562 cells. For this purpose, we examined changes in the expression of the ABL signalling pathway and ABL downstream targets after exposure to IS1, IS8 and IS10. […] The enhanced transcription of the ABL gene might be related to the low protein level that was reached after exposure to the tested drugs. Thus, the cellular machinery could induce increased protein synthesis to counteract the effects of inhibition. […] The second gene studied, SRC, is involved in signal transduction from growth factors and receptors. Similar to ABL, the Src protein has oncogenic activity and is overexpressed in cancer cells. It is also important to emphasise that both kinases form a specific direct signalling network, as […].
# Reverse transcription was carried out with 1 μg total RNA using a ProtoScript M-MuLV First Strand cDNA Synthesis Kit (New England BioLabs). The RT-qPCR was performed using a CTX96 Real-Time PCR Detection System (Biorad) in a 10 μL reaction volume containing Luna Universal qPCR Master Mix (New England BioLabs), specific primer pair mix and cDNA. The PCR reaction was performed as follows: initial denaturation at 95 °C for 60 s; followed by 40 cycles of denaturation at 95 °C, 15 s; annealing (primer-specific temperature for 30 s) and extension at 72 °C for 30 s. Melting curve analysis was used to determine the specific PCR products. The results were analysed based on comparison of the expression of the target genes with the reference gene – HPRT1 using the 2^−^ΔΔ^CT method. Experiments were performed at least four times.
# [18] = system: K562 cells; experiment: Cell cycle assay (Muse Cell-Cycle Kit, flow cytometry); format: cell-based, human; conditions: 16 h
# Description: The interesting inhibitory potential of ABL kinase and the high antiproliferative activity of several styrylquinazoline derivatives prompted us to further investigate their mechanism of action.
# K562 cells were seeded in 3 cm Petri dishes (Nunc) at a density of 150,000 cells per well and incubated under standard conditions at 37 °C for 24 h. […] After 16 h of treatment, assays were performed using a Muse Cell-Cycle Kit (Millipore) according to the supplier’s instructions. Briefly, leukaemia cells were collected, washed in cold PBS, and centrifuged. Cells were then fixed in ice-cold 70% ethanol and stored at −20 °C overnight. The next day, leukaemia cells were washed with cold PBS, centrifuged and resuspended in Muse™ Cell Cycle Reagent. Samples were incubated for 30 min at room temperature in the dark. After staining, the levels of cellular subpopulations in each cell cycle phase were determined using a Muse Cell Analyser (Millipore). Experiments were performed at least four times.
# [19] = system: K562 cells; experiment: Immunoblotting; format: cell-based, human; conditions: 16 h
# Description: Changes in the expression of the BCR-ABL and ABL proteins and their downstream targets, such as STAT5, Src, Akt and Fyn after treatment with the tested compounds were also examined. As shown in Figure 7(B), no significant changes in the phosphorylation of BCR-ABL were observed after treatment with the tested styrylquinazolines. […] For reference inhibitors, there were greater changes in the expression of this protein. There were also interesting changes in the downstream targets of ABL, STAT5 and Src. […] Unfortunately, contrary to our assumptions and earlier results, IS1 was ineffective in inhibiting ABL, STAT5, and Src phosphorylation at the concentrations used. However, this derivative caused downregulation of Fyn expression, which could confirm its high inhibitory potential from in vitro kinase assays. […] Thus, these compounds were capable of blocking the pro-survival pathway facilitated by Akt kinase.
# Prior to the experiment, K562 cells were seeded at a density of 500,000 cells per well in 3 cm Petri dishes (Nunc). […] After 16 h of exposure, cells were collected, centrifuged, and lysed on ice in complete RIPA buffer containing Halt Protease Inhibitor Cocktail, Halt Phosphatase Inhibitor Cocktail and 0.5 M EDTA (all from Thermo Scientific). Protein quantification was measured using a BCA Protein Assay Kit (Thermo Scientific) according to the manufacturer’s protocol. Equal amounts of the proteins were electrophoresed on SDS-page gels and transferred to nitrocellulose membranes. After blocking in 5% non-fat milk prepared in TTBS (Tris buffered saline with Tween 20), membranes were incubated overnight at 4 °C with specific primary antibodies (all from Cell Signalling) at a dilution of 1:1000 for c-ABL, phospho-c-ABL, Stat5, phospho-Stat5, cyclin E1, p27, PARP, AIF, BID, Src, Fyn, Akt, phospho-Akt, and at a dilution of 1:2000 for reference proteins (vinculin, β-actin and GAPDH). The next day, membranes were washed and incubated with horseradish peroxidase (HRP)-conjugated secondary antibodies for 1 h at room temperature. Chemiluminescence signals were recorded after staining with SuperSignal™ West Pico Chemiluminescent Substrate (Thermo Scientific) using a ChemiDoc™ XRS + System (BioRad). Experiments were performed four to five times. Densitometric analysis was performed using ImageJ software (Wayne Rasband, National Institutes of Health, USA).
# T7 sequence (P41240 whole entry): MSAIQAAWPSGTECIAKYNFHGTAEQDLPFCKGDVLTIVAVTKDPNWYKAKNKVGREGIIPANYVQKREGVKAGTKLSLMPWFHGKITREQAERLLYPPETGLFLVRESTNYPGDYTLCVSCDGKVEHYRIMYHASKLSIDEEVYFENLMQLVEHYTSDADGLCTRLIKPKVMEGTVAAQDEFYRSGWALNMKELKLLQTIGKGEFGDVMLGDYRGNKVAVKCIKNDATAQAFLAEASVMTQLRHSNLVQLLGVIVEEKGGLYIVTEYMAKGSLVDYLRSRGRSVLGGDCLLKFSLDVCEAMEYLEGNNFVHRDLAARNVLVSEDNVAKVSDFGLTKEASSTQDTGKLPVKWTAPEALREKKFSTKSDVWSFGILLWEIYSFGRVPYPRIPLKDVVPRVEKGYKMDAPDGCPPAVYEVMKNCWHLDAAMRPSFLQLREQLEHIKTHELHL
# T2 sequence (P06241 whole entry): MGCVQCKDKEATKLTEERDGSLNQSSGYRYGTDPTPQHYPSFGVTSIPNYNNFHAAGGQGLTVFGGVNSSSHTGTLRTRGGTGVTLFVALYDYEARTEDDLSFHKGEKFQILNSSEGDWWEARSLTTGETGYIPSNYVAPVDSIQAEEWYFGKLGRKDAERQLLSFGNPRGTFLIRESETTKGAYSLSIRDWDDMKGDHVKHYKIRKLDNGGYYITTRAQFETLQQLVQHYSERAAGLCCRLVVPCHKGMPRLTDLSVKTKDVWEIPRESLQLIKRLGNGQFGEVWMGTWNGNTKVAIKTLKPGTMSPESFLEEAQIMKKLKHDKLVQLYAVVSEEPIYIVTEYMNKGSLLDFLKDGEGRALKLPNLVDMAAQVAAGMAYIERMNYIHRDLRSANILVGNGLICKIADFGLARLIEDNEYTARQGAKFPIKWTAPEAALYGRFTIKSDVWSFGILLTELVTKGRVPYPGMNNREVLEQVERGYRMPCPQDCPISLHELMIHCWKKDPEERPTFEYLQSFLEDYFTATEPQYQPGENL
# T4 sequence (Q13882 whole entry): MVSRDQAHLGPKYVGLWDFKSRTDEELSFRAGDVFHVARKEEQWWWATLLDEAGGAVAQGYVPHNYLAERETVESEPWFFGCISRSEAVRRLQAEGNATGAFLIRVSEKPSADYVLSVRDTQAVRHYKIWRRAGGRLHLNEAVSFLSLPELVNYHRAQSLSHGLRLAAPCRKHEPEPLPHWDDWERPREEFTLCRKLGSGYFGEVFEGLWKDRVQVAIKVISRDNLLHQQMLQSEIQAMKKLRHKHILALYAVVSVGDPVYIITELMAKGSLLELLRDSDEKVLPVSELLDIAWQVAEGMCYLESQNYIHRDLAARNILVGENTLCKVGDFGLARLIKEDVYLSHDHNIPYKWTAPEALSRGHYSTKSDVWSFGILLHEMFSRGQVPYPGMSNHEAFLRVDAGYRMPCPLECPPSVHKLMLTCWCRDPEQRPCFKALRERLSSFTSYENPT
# T8 sequence (P07948 1-491 isoform P07948-2): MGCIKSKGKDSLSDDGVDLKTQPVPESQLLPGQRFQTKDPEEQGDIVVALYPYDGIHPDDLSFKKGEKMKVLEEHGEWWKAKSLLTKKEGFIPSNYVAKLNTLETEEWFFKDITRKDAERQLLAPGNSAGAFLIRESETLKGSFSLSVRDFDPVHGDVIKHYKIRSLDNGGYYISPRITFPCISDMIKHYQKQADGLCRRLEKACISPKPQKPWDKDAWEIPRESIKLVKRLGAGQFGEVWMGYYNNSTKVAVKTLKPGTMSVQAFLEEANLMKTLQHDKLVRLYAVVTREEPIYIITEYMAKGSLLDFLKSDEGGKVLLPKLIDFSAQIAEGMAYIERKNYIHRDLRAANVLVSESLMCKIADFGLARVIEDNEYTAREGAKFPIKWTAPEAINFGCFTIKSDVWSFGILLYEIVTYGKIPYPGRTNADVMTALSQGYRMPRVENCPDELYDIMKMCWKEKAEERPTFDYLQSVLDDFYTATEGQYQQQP
# T5 sequence (P12931 whole entry): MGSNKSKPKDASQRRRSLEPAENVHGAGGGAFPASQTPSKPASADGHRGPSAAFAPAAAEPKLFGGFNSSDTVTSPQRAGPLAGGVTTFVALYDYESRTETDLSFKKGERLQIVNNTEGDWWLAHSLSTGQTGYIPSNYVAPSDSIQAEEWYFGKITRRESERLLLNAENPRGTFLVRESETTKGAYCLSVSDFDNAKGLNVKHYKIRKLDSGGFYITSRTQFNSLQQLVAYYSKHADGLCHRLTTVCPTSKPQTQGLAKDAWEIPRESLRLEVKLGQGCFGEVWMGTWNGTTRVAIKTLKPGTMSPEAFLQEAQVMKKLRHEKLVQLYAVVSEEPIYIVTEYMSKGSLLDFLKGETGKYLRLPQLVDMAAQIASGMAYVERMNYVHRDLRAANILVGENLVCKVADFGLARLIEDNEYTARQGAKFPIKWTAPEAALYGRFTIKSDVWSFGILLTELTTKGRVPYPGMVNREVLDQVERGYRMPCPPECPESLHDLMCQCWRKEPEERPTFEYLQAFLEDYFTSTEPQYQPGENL
# T1 sequence (Q06187 whole entry): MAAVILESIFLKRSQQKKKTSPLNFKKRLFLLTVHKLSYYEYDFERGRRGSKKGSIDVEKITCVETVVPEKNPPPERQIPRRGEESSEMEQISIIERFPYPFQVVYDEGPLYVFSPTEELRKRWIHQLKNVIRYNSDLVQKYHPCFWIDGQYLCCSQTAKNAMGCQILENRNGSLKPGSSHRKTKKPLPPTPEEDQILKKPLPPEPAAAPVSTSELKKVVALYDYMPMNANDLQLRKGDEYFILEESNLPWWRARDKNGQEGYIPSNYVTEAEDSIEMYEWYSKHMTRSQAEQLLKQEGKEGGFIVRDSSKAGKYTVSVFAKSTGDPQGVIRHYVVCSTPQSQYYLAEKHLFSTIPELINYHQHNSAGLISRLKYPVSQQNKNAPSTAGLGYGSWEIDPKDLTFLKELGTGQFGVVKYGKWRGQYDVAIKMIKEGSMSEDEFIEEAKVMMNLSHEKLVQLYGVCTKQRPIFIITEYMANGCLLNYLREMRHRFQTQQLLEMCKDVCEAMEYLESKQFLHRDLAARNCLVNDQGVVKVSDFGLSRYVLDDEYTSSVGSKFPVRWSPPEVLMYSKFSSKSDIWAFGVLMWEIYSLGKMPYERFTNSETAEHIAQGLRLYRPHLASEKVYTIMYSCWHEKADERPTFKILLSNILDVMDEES
# T6 sequence (P00519 whole entry): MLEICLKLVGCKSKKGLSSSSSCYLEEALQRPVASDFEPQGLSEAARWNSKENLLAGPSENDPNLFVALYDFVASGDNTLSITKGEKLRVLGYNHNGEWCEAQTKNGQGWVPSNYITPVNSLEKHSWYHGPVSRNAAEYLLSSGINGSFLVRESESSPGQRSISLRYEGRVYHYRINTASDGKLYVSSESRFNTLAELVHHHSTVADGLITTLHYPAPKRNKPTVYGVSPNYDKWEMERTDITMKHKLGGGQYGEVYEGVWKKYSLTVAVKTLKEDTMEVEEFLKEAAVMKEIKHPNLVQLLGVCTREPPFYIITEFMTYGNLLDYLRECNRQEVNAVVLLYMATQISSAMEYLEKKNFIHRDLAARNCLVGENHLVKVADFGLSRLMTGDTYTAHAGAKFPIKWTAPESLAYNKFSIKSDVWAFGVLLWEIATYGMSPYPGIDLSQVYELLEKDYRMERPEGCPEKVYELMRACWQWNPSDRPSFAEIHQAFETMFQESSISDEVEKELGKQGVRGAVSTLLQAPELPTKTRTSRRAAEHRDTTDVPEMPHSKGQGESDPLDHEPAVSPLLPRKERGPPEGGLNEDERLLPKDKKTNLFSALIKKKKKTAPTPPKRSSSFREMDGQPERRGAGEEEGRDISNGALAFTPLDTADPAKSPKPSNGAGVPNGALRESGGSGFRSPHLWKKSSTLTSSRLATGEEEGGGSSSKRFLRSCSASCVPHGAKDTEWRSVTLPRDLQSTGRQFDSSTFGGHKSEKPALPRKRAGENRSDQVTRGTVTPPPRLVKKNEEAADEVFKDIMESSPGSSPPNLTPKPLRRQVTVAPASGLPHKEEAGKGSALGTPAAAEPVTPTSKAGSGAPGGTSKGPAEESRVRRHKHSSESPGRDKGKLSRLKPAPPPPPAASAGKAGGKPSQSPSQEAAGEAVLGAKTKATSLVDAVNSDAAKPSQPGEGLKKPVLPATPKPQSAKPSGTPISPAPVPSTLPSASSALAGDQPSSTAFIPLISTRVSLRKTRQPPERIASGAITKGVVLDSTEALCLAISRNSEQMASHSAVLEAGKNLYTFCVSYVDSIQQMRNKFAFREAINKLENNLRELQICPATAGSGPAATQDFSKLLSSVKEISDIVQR
# T3 sequence (P06239 whole entry): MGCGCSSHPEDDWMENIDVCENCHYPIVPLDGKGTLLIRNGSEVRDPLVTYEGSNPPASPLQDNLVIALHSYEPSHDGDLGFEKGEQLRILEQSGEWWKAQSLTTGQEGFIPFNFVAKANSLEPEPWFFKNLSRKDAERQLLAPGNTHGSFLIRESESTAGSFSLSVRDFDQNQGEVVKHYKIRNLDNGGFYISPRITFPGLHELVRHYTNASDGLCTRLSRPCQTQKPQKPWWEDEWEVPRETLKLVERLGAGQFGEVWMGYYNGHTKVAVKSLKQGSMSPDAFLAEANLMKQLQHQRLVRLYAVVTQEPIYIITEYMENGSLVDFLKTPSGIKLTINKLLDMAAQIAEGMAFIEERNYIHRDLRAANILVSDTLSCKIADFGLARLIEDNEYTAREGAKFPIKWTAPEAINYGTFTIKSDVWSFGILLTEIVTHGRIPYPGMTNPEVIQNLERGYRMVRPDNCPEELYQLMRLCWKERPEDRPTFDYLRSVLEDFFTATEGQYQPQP
compound,measurement,setting,value
"COc1ccc(/C=C/c2nc(Sc3ccccc3Cl)c3ccccc3n2)c(OC)c1 [IS16, 2-[(E)-2–(2,4-dimethoxyphenyl)ethenyl]-4–(2-chlorophenylthio)quinazoline]",IC50,[1],14.6 ± 1.27 µM
same,inhibition at 0.5 µM,[2],13.1 ± 2.69%
same,IC50,"[3]; Homo sapiens, U-251, 72 h, MTS",20.9 ± 1.63 µM
same,Selectivity index U-251,[3]; versus NHDF,1.20
same,IC50,"[4]; Homo sapiens, HCT-116, 72 h, MTS",> 15 µM
same,Selectivity index HCT 116 p53+/+,[4]; versus NHDF,1.67
same,IC50,"[5]; Homo sapiens, A549, 72 h, MTS",13.4 ± 0.6 µM
same,Selectivity index A549,[5]; versus NHDF,1.86
same,IC50,[6],> 2.5 µM
same,IC50,[7],> 10 µM
same,IC50,"[8]; Homo sapiens, K562, 72 h, MTS",7.83 ± 0.753 µM
same,Selectivity index K562,[8]; versus NHDF,3.20
same,IC50,"[9]; Homo sapiens, MCF7, 72 h, MTS",> 25 µM
same,Selectivity index MCF-7,[9]; versus NHDF,1.00
same,inhibition at 0.5 µM,[10],50.1 ± 3.49%
same,inhibition at 0.5 µM,[11],48.1 ± 6.55%
same,inhibition at 0.5 µM,[12],0%
same,inhibition at 0.5 µM,[13],0%
same,inhibition at 0.5 µM,[14],35.6 ± 1.5%
same,inhibition at 0.5 µM,[15],15.5 ± 2.88%
same,inhibition at 0.5 µM,[16],0%
"Cc1ccc(NC(=O)c2ccc(CN3CCN(C)CC3)cc2)cc1Nc1nccc(-c2cccnc2)n1 [Imatinib, imatinib, reference compound]",CCNE2 expression (mRNA),[17],increase
same,Expression of the ABL gene (mRNA),[17],slight non-significant decrease
same,SRC mRNA levels,[17],significant decrease
same,Cell cycle arrest (phase),[18],inhibition of G0/G1 phase
same,inhibition at 0.5 µM,[2],0%
same,inhibition at 0.5 µM,[10],0%
same,inhibition at 0.5 µM,[12],0%
same,AIF protein,[19],significant increase
same,Src protein expression / phosphorylation,[19],significant accumulation
same,STAT5 phosphorylation,[19]; at the concentrations used,stronger effect
same,inhibition at 0.5 µM,[15],0%
same,inhibition at 0.5 µM,[16],0%
"CNC(=O)c1ccccc1Sc1ccc2c(/C=C/c3ccccn3)n[nH]c2c1 [Axitinib, axitinib, reference compound]",Fraction of cells in the G2/M phase,"[18]; concentration not given, control 28.68%",47.28%
same,inhibition at 0.5 µM,[10],43.8 ± 2.96%
same,inhibition at 0.5 µM,[12],0%
same,inhibition at 0.5 µM,[13],10.8 ± 1.95%
same,inhibition at 0.5 µM,[15],11.4 ± 3.89%
same,inhibition at 0.5 µM,[16],39 ± 9.95%
